Tests used:
[1] = biological target: Platelet-derived growth factor receptor (Homo sapiens, UniProt P09619+P16234); experiment: Inhibition of Platelet-derived growth factor receptor-dependent phosphorylation; format: protein-complex assay
[2] = biological target: Proto-oncogene tyrosine-protein kinase Src (Homo sapiens, UniProt P12931); experiment: Inhibition of p60 c-Src tyrosine kinase
[3] = biological target: Protein kinase C alpha type (Homo sapiens, UniProt P17252); experiment: Inhibition of Protein kinase C alpha
[4] = biological target: Tyrosine-protein kinase ABL (Homo sapiens, UniProt P00519+P42684); experiment: Inhibition of v-Abl tyrosine kinase; format: protein assay
[5] = biological target: T1, Epidermal growth factor receptor (Homo sapiens, UniProt P00533); experiment: Inhibition of Epidermal growth factor receptor
T1 sequence (P00533 whole entry): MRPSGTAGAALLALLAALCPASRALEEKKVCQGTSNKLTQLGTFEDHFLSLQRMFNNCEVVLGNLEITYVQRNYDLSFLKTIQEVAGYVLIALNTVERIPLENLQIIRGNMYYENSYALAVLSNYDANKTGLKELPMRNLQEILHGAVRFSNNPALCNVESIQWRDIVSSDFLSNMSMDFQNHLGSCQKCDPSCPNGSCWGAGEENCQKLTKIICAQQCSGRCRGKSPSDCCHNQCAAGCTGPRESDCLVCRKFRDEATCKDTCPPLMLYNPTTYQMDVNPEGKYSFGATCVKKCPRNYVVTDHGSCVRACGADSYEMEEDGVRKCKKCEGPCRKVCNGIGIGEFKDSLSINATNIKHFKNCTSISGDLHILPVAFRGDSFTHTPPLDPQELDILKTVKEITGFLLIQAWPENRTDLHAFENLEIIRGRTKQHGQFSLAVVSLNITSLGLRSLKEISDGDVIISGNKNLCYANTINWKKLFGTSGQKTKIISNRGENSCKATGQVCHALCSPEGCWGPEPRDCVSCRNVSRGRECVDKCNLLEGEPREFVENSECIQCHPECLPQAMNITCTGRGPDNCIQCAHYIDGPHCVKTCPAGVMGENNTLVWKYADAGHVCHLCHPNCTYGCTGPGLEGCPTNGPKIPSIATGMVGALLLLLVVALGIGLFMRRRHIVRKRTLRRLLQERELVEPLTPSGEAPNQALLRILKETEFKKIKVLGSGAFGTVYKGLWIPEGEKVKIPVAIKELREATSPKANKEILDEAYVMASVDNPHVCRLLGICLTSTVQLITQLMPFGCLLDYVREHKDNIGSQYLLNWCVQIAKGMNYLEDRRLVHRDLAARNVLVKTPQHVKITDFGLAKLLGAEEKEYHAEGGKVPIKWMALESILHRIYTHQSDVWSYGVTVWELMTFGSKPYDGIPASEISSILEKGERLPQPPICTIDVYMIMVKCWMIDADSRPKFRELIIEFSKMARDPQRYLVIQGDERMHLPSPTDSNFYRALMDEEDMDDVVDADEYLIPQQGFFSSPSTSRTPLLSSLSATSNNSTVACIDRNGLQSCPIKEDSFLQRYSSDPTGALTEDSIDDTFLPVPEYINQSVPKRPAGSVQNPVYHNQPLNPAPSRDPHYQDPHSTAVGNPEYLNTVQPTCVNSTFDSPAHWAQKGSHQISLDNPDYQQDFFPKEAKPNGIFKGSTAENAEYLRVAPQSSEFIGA

[6] = biological target: T1, Epidermal growth factor receptor; experiment: Inhibition of Epidermal growth factor receptor-dependent phosphorylation

Proto-oncogene tyrosine-protein kinase Src, sequence (P12931 2-536 limits assumed): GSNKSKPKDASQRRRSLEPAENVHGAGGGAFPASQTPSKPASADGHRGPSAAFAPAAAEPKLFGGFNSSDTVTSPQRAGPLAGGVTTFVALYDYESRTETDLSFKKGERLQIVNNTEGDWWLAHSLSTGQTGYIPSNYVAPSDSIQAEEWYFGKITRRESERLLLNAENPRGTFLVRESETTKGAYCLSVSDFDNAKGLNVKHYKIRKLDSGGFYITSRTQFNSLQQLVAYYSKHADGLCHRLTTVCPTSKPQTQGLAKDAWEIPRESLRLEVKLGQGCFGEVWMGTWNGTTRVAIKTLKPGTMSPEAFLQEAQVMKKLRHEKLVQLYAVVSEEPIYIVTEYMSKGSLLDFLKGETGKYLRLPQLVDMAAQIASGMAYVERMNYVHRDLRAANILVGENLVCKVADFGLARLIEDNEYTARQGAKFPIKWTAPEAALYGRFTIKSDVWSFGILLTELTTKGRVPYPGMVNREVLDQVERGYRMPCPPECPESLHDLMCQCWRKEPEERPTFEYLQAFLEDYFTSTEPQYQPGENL

SMILES | IC50 [1] | IC50 [2] | IC50 [3] | IC50 [4] | IC50 [5] | IC50 [6]
O=c1c(-c2cccc(Cl)c2)coc2cc(O)ccc12 |  |  |  |  | 58.8 µM | 
Oc1c(-c2cccc(Cl)c2)cnc2ccccc12 |  |  |  |  | > 100 µM | 
O=c1c(-c2cccc(Cl)c2)coc2cc(O)cc(O)c12 | > 10 µM | > 100 µM | > 100 µM | 20 µM | 0.095 µM | 12 µM
COC(=O)Cn1cc(-c2cccc(Cl)c2)c(=O)c2c(O)cc(OC)cc21 | > 10 µM | > 10 µM | > 100 µM | > 10 µM |  | 
COc1cc(OC)c2c(=O)c(-c3cccc(Cl)c3)coc2c1 | > 10 µM |  |  |  | 500 µM | > 100 µM
O=c1c(-c2ccc(O)cc2)coc2cc(O)cc(O)c12 [GENISTEIN] |  | > 10 µM | > 100 µM | > 10 µM |  | 
COc1cc2ncnc(Nc3cccc(Cl)c3)c2cc1OC [TYRPHOSTIN AG-1478] | > 10 µM | 2.7 µM | > 100 µM |  |  | 

Next, values leading:

IC50 [1] | IC50 [2] | IC50 [3] | IC50 [4] | IC50 [5] | IC50 [6] | SMILES
> 10 µM | 8 µM | > 100 µM | > 10 µM | 0.008 µM | 2 µM | Oc1cc(O)c2c(O)c(-c3cccc(Cl)c3)cnc2c1
> 10 µM | > 100 µM | > 100 µM | > 100 µM | 0.038 µM | 6 µM | COc1cc(O)c2c(O)c(-c3cccc(Cl)c3)cnc2c1
> 10 µM | > 100 µM | > 100 µM | > 100 µM | 1.27 µM | > 100 µM | COc1cc(O)c2c(=O)c(-c3cccc(Cl)c3)coc2c1
> 10 µM |  |  |  | 4 µM | 1.5 µM | COc1cc(O)c2c(=O)c(-c3cccc(Cl)c3)cn(CCc3ccccc3)c2c1
> 10 µM | > 10 µM | > 100 µM | > 10 µM | 0.17 µM | 3 µM | COc1cc(O)c2c(=O)c(-c3cccc(Cl)c3)cn(C)c2c1

Source: ChEMBL document CHEMBL1132606, “Use of a pharmacophore model for the design of EGFR tyrosine kinase inhibitors: isoflavones and 3-phenyl-4(1H)-quinolones” (J Med Chem, 1999)
